Data from patent US20040043959A1, “Combination therapies for treating methylthioadenosine phosphorylase deficient cells” (priority 2002, published 2004).

Target: T1, Human MTAP (Homo sapiens, UniProt Q13126)
T1 construct: six-histidine tag (His6) (N); made in house; host or cells: E. coli BL21 DE3
T1 sequence (Q13126 1-283): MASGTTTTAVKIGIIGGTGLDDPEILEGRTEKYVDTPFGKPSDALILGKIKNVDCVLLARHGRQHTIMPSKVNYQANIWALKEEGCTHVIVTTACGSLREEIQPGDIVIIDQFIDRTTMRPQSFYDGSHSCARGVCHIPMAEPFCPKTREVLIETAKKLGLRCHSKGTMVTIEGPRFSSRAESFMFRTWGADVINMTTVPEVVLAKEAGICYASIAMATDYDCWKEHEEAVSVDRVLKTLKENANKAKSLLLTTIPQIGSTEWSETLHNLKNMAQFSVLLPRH
Experiment: MTAP substrate assay, coupled spectrophotometric (adenine, xanthine oxidase)
Assay type: biochemical
Details: 2 nM MTAP; for activity at 50 µM: 10 min, compound 50 uM, relative to MTA at 50 uM, read-out: MT-A—50: initial velocity as a percentage of the initial velocity with MTA as substrate; for MT-A—10: initial velocity as a percentage of the initial velocity with MTA as substrate: compound 10 uM, relative to MTA at 10 uM
How it was run: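 Detection was xanthine oxidase-coupled (0.8 units/ml), reading adenine-derived absorbance at 305 nm over 10 min in potassium phosphate/DTT buffer at 37° C, with N-His6 enzyme purified from E. coli.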

Compound | activity at 50 µM [%] | MT-A—10: initial velocity as a percentage of the initial velocity with MTA as substrate [%]
Nc1ncnc2c1ncn2[C@@H]1O[C@H](CSc2cccc(C(F)(F)F)c2)[C@@H](O)[C@H]1O [2(G)(99), (2R, 3R,4S, 5S)-2-(6-amino-9H-purin-9-yl)-5-({[3-(trifluoromethyl)-phenyl]thio}methyl)-tetrahydrofuran-3,4-diol] | 18 | 17
Cc1nccnc1SC[C@H]1O[C@@H](n2cnc3c(N)ncnc32)[C@H](O)[C@@H]1O [2(G)(100), (2R, 3R, 4S, 5S)-2-(6-amino-9H-purin-9-yl)-5-{[(3-methylpyrazin-2-yl)thio]methyl}tetrahydro-furan-3,4-diol] | 10 | 7
Nc1ncnc2c1ncn2[C@@H]1O[C@H](CSc2cccc(O)c2)[C@@H](O)[C@H]1O [2(G)(101), (2R, 3R, 4S, 5S)-2-(6-amino-9H-purin-9-yl)-5-{[(3-hydroxyphenyl)-thio]methyl}tetrahydro-furan-3,4-diol] | 38 | 36
Nc1ncnc2c1ncn2[C@@H]1O[C@H](CSc2c(Cl)cccc2Cl)[C@@H](O)[C@H]1O [2(G)(102), (2R, 3R, 4S, 5S)-2-(6-amino-9H-purin-9-yl)-5-{[(2,6-dichIorophenyl)-thio]methyl}tetrahydro-furan-3,4-diol] | 3 | 2
Nc1ncnc2c1ncn2[C@@H]1O[C@H](CSc2ccc(C(F)(F)F)cc2[N+](=O)[O-])[C@@H](O)[C@H]1O [2(G)(103), (2R, 3R, 4S, 5S)-2-(6-amino-9H-purin-9-yl)-5-({[2-nitro-4-(trifluoromethyl)phenyl]thio}methyl)tetrahydro-furan-3,4-diol] | 4 | 3
Nc1ncnc2c1ncn2[C@@H]1O[C@H](CSCC(=O)Nc2ccccc2)[C@@H](O)[C@H]1O [2(G)(104), 2-({[(2S, 3S, 4R, 5R)-5-(6-amino-9H-purin-9-yl)-3,4-dihydroxytetrahydro-furan-2-yl]methyl}thio)-N-phenylacetamide] | 15 | 5
Nc1ncnc2c1ncn2[C@@H]1O[C@H](CSc2ccc([N+](=O)[O-])cn2)[C@@H](O)[C@H]1O [2(G)(105), (2R, 3R, 4S, 5S)-2-(6-amino-9H-purin-9-yl)-5-{[(5-nitropyridin-2-yl)thio]methyl}tetrahydro-furan-3,4-diol] | 21 | 17
Nc1ncnc2c1ncn2[C@@H]1O[C@H](CSc2c[nH]c3ccccc23)[C@@H](O)[C@H]1O [2(G)(106), (2R, 3R, 4S, 5S)-2-(6-amino-9H-purin-9-yl)-5-[(1H-indol-3-ylthio)-methyl]-tetrahydrofuran-3,4-diol] | 3 | 6
COC(=O)c1ccccc1SC[C@H]1O[C@@H](n2cnc3c(N)ncnc32)[C@H](O)[C@@H]1O [2(G)(107), methyl 2-({[(2S, 3S, 4R, 5R)-5-(6-amino-9H-purin-9-yl)-3,4-dihydroxy-tetrahydrofuran-2-yl]-methyl}thio)-benzoate] | 2 | 4
Nc1ncnc2c1ncn2[C@@H]1O[C@H](CSc2ccc(/C=C/C(=O)O)cc2)[C@@H](O)[C@H]1O [2(G)(108), (2E)-3-[4-({[(2S, 3S, 4R, 5R)-5-(6-amino-9H-purin-9-yl)-3,4-dihydroxytetra-hydrofuran-2-yl]methyl}thio)phenyl]acrylic acid] | 19 | 8
COC(=O)c1cccc(SC[C@H]2O[C@@H](n3cnc4c(N)ncnc43)[C@H](O)[C@@H]2O)c1 [2(G)(109), methyl 3-({[(2S, 3S, 4R, 5R)-5-(6-amino-9H-purin-9-yl)-1,3,4-dihydroxytetra-hydrofuran-2-yl]methyl}thio)benzoate] | 8 | 8
COC(=O)/C=C/c1ccc(SC[C@H]2O[C@@H](n3cnc4c(N)ncnc43)[C@H](O)[C@@H]2O)cc1 [2(G)(110), methyl (2E)-3-[4-({[(2S, 3S, 4R, 5R)-5-(6-amino-9H-purin-9-yl)-dihydroxy-tetrahydrofuran-2-yl]-methyl}thio)phenyl]-acrylate] | 9 | 15
COc1cccc(-c2nnc(SC[C@H]3O[C@@H](n4cnc5c(N)ncnc54)[C@H](O)[C@@H]3O)n2C)c1 [2(G)(111), (2R, 3R, 4S, 5S)-2-(6-amino-9H-purin-9-yl)-5-({[5-(3-methoxyphenyl)-4-methyl-4H-1,2,4-triazol-3-yl]thio}-methyl)tetrahydrofuran-3,4-diol] | 4 | 8
Nc1ncnc2c1ncn2[C@@H]1O[C@H](CSc2nccc(-c3ccco3)n2)[C@@H](O)[C@H]1O [2(G)(112), (2R, 3R, 4S, 5S)-2-(6-amino-9H-purin-9-yl)-5-({[4-(2-furyl)pyrimidin-2-yl]thio}methyl)tetrahydro-furan-3,4-diol] | 10 | 17
Cn1c(SC[C@H]2O[C@@H](n3cnc4c(N)ncnc43)[C@H](O)[C@@H]2O)nc2ccccc21 [2(G)(113), (2R, 3R, 4S, 5S)-2-(6-amino-9H-purin-9-yl)-5-{[(1-methyl-1H-benzimidazol-2-yl)thio]-methyl}tetrahydro-furan-3,4-diol] | 43 | 48

Second part, the compound after the results:

activity at 50 µM [%] | MT-A—10: initial velocity as a percentage of the initial velocity with MTA as substrate [%] | Compound
11 | 29 | CC(=O)NCCSC[C@H]1O[C@@H](n2cnc3c(N)ncnc32)[C@H](O)[C@@H]1O [2(G)(114), N-[2-({[(2S, 3S, 4R, 5R)-5-(6-amino-9H-purin-9-yl)-3,4-dihydroxytetra-hydrofuran-2-yl]methyl}thio)ethyl]acetamide]
15 | 12 | CSc1ccc(SC[C@H]2O[C@@H](n3cnc4c(N)ncnc43)[C@H](O)[C@@H]2O)cc1 [2(G)(115), (2R, 3R, 4S, 5S)-2-(6-amino-9H-purin-9-yl)-5-({[4-(methylthio)phenyl]-thio}methyl)tetrahydro-furan-3,4-diol]
7 | 3 | Nc1ncnc2c1ncn2[C@@H]1O[C@H](CSc2ccccc2OC(F)(F)F)[C@@H](O)[C@H]1O [2(G)(116), (2R, 3R, 4S, 5S)-2-(6-amino-9H-purin-9-yl)-5-({[2-(trifluoromethoxy)-phenyl]thio}methyl)tetra-hydrofuran-3,4-diol]
28 | 25 | Nc1ncnc2c1ncn2[C@@H]1O[C@H](CSc2ccccc2F)[C@@H](O)[C@H]1O [2(G)(117), (2R, 3R, 4S, 5S)-2-(6-amino-9H-purin-9-yl)-5-{[(2-fluorophenyl)thio)-methyl}tetrahydrofuran-3,4-diol]
2.5 | 2.5 | COc1ccc2[nH]c(SC[C@H]3O[C@@H](n4cnc5c(N)ncnc54)[C@H](O)[C@@H]3O)nc2c1 [2(G)(118), (2R, 3R, 4S, 5S)-2-(6-amino-9H-purin-9-yl)-5-{[(5-methoxy-1H-benzimidazol-2-yl)thio]methyl}tetrahydrofuran-3,4-diol]
26 | 12 | Nc1ncnc2c1ncn2[C@@H]1O[C@H](CSc2nc3ccccc3[nH]2)[C@@H](O)[C@H]1O [2(G)(119), (2R, 3R, 4S, 5S)-2-(6-amino-9H-purin-9-yl)-5-[(1H-benzimidazol-2-ylthio)methyl)tetrahydro-furan-3,4-diol]
3 | 1 | Cn1ccnc1SC[C@H]1O[C@@H](n2cnc3c(N)ncnc32)[C@H](O)[C@@H]1O [2(G)(120), (2R, 3R, 4S, 5S)-2-(6-amino-9H-purin-9-yl)-5-{[(1-methyl-1H-imidazol-2-yl)thio)methyl}tetra-hydrofuran-3,4-diol]
54.5 | 64.5 | CCCCCCCCCSC[C@H]1O[C@@H](n2cnc3c(N)ncnc32)[C@H](O)[C@@H]1O [2(G)(121), (2R, 3R, 4S, 5S)-2-(6-amino-9H-purin-9-yl)-5-[(nonylthio)methyl]tetra-hydrofuran-3,4-diol]
37 | 30.5 | Nc1ncnc2c1ncn2[C@@H]1O[C@H](CSc2nc3ccccc3o2)[C@@H](O)[C@H]1O [2(G)(122), (2R, 3R, 4S, 5S)-2-(6-amino-9H-purin-9-yl)-5-[(1,3-benzoxazol-2-ylthio)-methyl]tetrahydrofuran-3,4-diol]
22 | 23 | Nc1ncnc2c1ncn2[C@@H]1O[C@H](CSC[C@@H]2NC(=O)NC2=O)[C@@H](O)[C@H]1O [2(G)(123), (5R)-5-[({[(2S, 3S, 4R, 5R)-5-(6-amino-9H-purin-9-yl)-3,4-dihydroxytetra-hydrofuran-2-yl)methyl}thio)methyl]imidazo-lidine-2,4-dione]
